Data published in PubChem BioAssay (NCI).
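Dose response: 5 concentrations. Exposure: 48 h. Format: 96-well plates. Endpoint: linear interpolation; highest concentration if not reached. The concentration for 50% growth inhibition is given as GI50. TGI: total growth inhibition.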

What was measured:
Experiment in all cases: NCI-60 cell line screen, 48 h
MOLT-4 leukemia = system: MOLT-4 leukemia
OVCAR-5 ovarian = system: OVCAR-5 ovarian
SK-MEL-28 melanoma = system: SK-MEL-28 melanoma
TK-10 renal = system: TK-10 renal
SW-620 colon = system: SW-620 colon
COLO 205 colon = system: COLO 205 colon
UACC-257 melanoma = system: UACC-257 melanoma
DU-145 prostate = system: DU-145 prostate
HL-60(TB) leukemia = system: HL-60(TB) leukemia
SF-539 CNS = system: SF-539 CNS
SR leukemia = system: SR leukemia
U251 CNS = system: U251 CNS
HOP-92 NSCLC = system: HOP-92 NSCLC
LOX IMVI melanoma = system: LOX IMVI melanoma
SF-295 CNS = system: SF-295 CNS
SNB-75 CNS = system: SNB-75 CNS
SK-MEL-2 melanoma = system: SK-MEL-2 melanoma
RXF 393 renal = system: RXF 393 renal
HCT-116 colon = system: HCT-116 colon
NCI-H460 lung = system: NCI-H460 lung
T-47D breast = system: T-47D breast
EKVX NSCLC = system: EKVX NSCLC
K-562 leukemia = system: K-562 leukemia
CAKI-1 renal = system: CAKI-1 renal
SN12C renal = system: SN12C renal
MDA-MB-435 = system: MDA-MB-435
SNB-19 CNS = system: SNB-19 CNS
A549 NSCLC = system: A549 NSCLC
MCF7 breast = system: MCF7 breast
RPMI-8226 leukemia = system: RPMI-8226 leukemia
A498 renal = system: A498 renal
MALME-3M melanoma = system: MALME-3M melanoma
OVCAR-4 ovarian = system: OVCAR-4 ovarian
HS 578T breast = system: HS 578T breast
OVCAR-8 ovarian = system: OVCAR-8 ovarian
SK-MEL-5 melanoma = system: SK-MEL-5 melanoma
NCI-H23 lung = system: NCI-H23 lung
PC-3 prostate = system: PC-3 prostate
HT29 colon = system: HT29 colon
IGROV1 ovarian = system: IGROV1 ovarian
HOP-62 NSCLC = system: HOP-62 NSCLC
MDA-MB-231 breast = system: MDA-MB-231 breast
786-0 renal = system: 786-0 renal
NCI-H522 lung = system: NCI-H522 lung
UACC-62 melanoma = system: UACC-62 melanoma
HCT-15 colon = system: HCT-15 colon
M14 melanoma = system: M14 melanoma
BT-549 breast = system: BT-549 breast
OVCAR-3 ovarian = system: OVCAR-3 ovarian
ACHN renal = system: ACHN renal
NCI-H226 lung = system: NCI-H226 lung
CCRF-CEM leukemia = system: CCRF-CEM leukemia
SK-OV-3 ovarian = system: SK-OV-3 ovarian
KM12 colon = system: KM12 colon
NCI/ADR-RES ovarian = system: NCI/ADR-RES ovarian
HCC-2998 colon = system: HCC-2998 colon
SF-268 CNS = system: SF-268 CNS
UO-31 renal = system: UO-31 renal

NC(N)=NCCN1CCCCCc2ccccc21
TGI (MOLT-4 leukemia): > 10000 nM
TGI (OVCAR-5 ovarian): > 10000 nM
TGI (SK-MEL-28 melanoma): > 10000 nM
TGI (TK-10 renal): > 10000 nM
TGI (SW-620 colon): > 10000 nM
TGI (COLO 205 colon): > 10000 nM
TGI (UACC-257 melanoma): > 10000 nM
TGI (DU-145 prostate): > 10000 nM
TGI (HL-60(TB) leukemia): > 10000 nM
TGI (SF-539 CNS): > 10000 nM
TGI (SR leukemia): > 10000 nM
TGI (U251 CNS): > 10000 nM
TGI (HOP-92 NSCLC): > 10000 nM
TGI (LOX IMVI melanoma): > 10000 nM
TGI (SF-295 CNS): > 10000 nM
TGI (SNB-75 CNS): > 10000 nM
TGI (SK-MEL-2 melanoma): > 10000 nM
TGI (RXF 393 renal): > 10000 nM
TGI (HCT-116 colon): > 10000 nM
TGI (NCI-H460 lung): > 10000 nM
TGI (T-47D breast): > 10000 nM
TGI (EKVX NSCLC): > 10000 nM
TGI (K-562 leukemia): > 10000 nM
TGI (CAKI-1 renal): > 10000 nM
TGI (SN12C renal): > 10000 nM
TGI (MDA-MB-435): > 10000 nM
TGI (SNB-19 CNS): > 10000 nM
TGI (A549 NSCLC): > 10000 nM
TGI (MCF7 breast): > 10000 nM
TGI (RPMI-8226 leukemia): > 10000 nM
TGI (A498 renal): > 10000 nM
TGI (MALME-3M melanoma): > 10000 nM
TGI (OVCAR-4 ovarian): > 10000 nM
TGI (HS 578T breast): > 10000 nM
TGI (OVCAR-8 ovarian): > 10000 nM
TGI (SK-MEL-5 melanoma): > 10000 nM
TGI (NCI-H23 lung): > 10000 nM
TGI (PC-3 prostate): > 10000 nM
TGI (HT29 colon): > 10000 nM
TGI (IGROV1 ovarian): > 10000 nM
TGI (HOP-62 NSCLC): > 10000 nM
TGI (MDA-MB-231 breast): > 10000 nM
TGI (786-0 renal): > 10000 nM
TGI (NCI-H522 lung): > 10000 nM
TGI (UACC-62 melanoma): > 10000 nM
TGI (HCT-15 colon): > 10000 nM
TGI (M14 melanoma): > 10000 nM
TGI (BT-549 breast): > 10000 nM
TGI (OVCAR-3 ovarian): > 10000 nM
TGI (ACHN renal): > 10000 nM
TGI (NCI-H226 lung): > 10000 nM
TGI (CCRF-CEM leukemia): > 10000 nM
TGI (SK-OV-3 ovarian): > 10000 nM
TGI (KM12 colon): > 10000 nM
TGI (NCI/ADR-RES ovarian): > 10000 nM
TGI (HCC-2998 colon): > 10000 nM
TGI (SF-268 CNS): > 10000 nM

CCOc1ccccc1C(=O)/C=C/c1cc2ccccc2[nH]c1=O
GI50 (MOLT-4 leukemia): 38.5 nM
TGI (MOLT-4 leukemia): 4430 nM
GI50 (OVCAR-5 ovarian): 193 nM
TGI (OVCAR-5 ovarian): 1440 nM
GI50 (SK-MEL-28 melanoma): 324 nM
TGI (SK-MEL-28 melanoma): 2160 nM
GI50 (TK-10 renal): 438 nM
TGI (TK-10 renal): 2930 nM
GI50 (SW-620 colon): 19.4 nM
TGI (SW-620 colon): 1160 nM
GI50 (COLO 205 colon): 37.1 nM
TGI (COLO 205 colon): 643 nM
GI50 (DU-145 prostate): 38 nM
TGI (DU-145 prostate): 905 nM
GI50 (HL-60(TB) leukemia): 13 nM
TGI (HL-60(TB) leukemia): 59 nM
GI50 (SF-539 CNS): 29.4 nM
TGI (SF-539 CNS): 129 nM
GI50 (SR leukemia): < 10 nM
TGI (SR leukemia): > 100000 nM
GI50 (U251 CNS): 39.7 nM
TGI (U251 CNS): 1330 nM
GI50 (HOP-92 NSCLC): 77.8 nM
TGI (HOP-92 NSCLC): 1410 nM
GI50 (LOX IMVI melanoma): 44.3 nM
TGI (LOX IMVI melanoma): 1060 nM
GI50 (SF-295 CNS): 31.1 nM
TGI (SF-295 CNS): 1280 nM
GI50 (SNB-75 CNS): 20.9 nM
TGI (SNB-75 CNS): 76.6 nM
GI50 (SK-MEL-2 melanoma): 65.7 nM
TGI (SK-MEL-2 melanoma): 3020 nM
GI50 (RXF 393 renal): 32.2 nM
TGI (RXF 393 renal): 340 nM
GI50 (HCT-116 colon): < 22.9 nM
TGI (HCT-116 colon): 1170 nM
GI50 (NCI-H460 lung): 33.2 nM
TGI (NCI-H460 lung): 349 nM
GI50 (T-47D breast): 271 nM
TGI (T-47D breast): 19600 nM
GI50 (EKVX NSCLC): 172 nM
TGI (EKVX NSCLC): 1990 nM
GI50 (K-562 leukemia): < 10 nM
TGI (K-562 leukemia): > 100000 nM
GI50 (CAKI-1 renal): 25.8 nM
TGI (CAKI-1 renal): 1490 nM
GI50 (SN12C renal): 96.1 nM
TGI (SN12C renal): 1630 nM
GI50 (MDA-MB-435): < 10 nM
TGI (MDA-MB-435): 13.9 nM
GI50 (UO-31 renal): 61.1 nM
TGI (UO-31 renal): 1590 nM
GI50 (SNB-19 CNS): 45.9 nM
TGI (SNB-19 CNS): 1340 nM
GI50 (A549 NSCLC): 74.1 nM
TGI (A549 NSCLC): 12400 nM
GI50 (MCF7 breast): 35.6 nM
TGI (MCF7 breast): 1410 nM
GI50 (RPMI-8226 leukemia): 28.4 nM
TGI (RPMI-8226 leukemia): 991 nM
GI50 (A498 renal): 14.7 nM
TGI (A498 renal): 81.3 nM
GI50 (MALME-3M melanoma): 23.8 nM
TGI (MALME-3M melanoma): 1880 nM
GI50 (OVCAR-4 ovarian): 144 nM
TGI (OVCAR-4 ovarian): 6240 nM
GI50 (HS 578T breast): 22.2 nM
TGI (HS 578T breast): 93.3 nM
GI50 (OVCAR-8 ovarian): 50.7 nM
TGI (OVCAR-8 ovarian): 2080 nM
GI50 (SK-MEL-5 melanoma): 43.1 nM
TGI (SK-MEL-5 melanoma): 1310 nM
GI50 (NCI-H23 lung): 72.9 nM
TGI (NCI-H23 lung): 1770 nM
GI50 (PC-3 prostate): 41.3 nM
TGI (PC-3 prostate): 2760 nM
GI50 (HT29 colon): 23.2 nM
TGI (HT29 colon): 2060 nM
GI50 (IGROV1 ovarian): 56.4 nM
TGI (IGROV1 ovarian): 1860 nM
GI50 (HOP-62 NSCLC): 67.8 nM
TGI (HOP-62 NSCLC): 3470 nM
GI50 (MDA-MB-231 breast): 77.4 nM
TGI (MDA-MB-231 breast): 2010 nM
GI50 (786-0 renal): 39.9 nM
TGI (786-0 renal): 1330 nM
GI50 (NCI-H522 lung): 30.8 nM
TGI (NCI-H522 lung): 1830 nM
GI50 (UACC-62 melanoma): 42.3 nM
TGI (UACC-62 melanoma): 1930 nM
GI50 (HCT-15 colon): 33.9 nM
TGI (HCT-15 colon): 1220 nM
GI50 (BT-549 breast): 72 nM
TGI (BT-549 breast): 1410 nM
GI50 (OVCAR-3 ovarian): 24.5 nM
TGI (OVCAR-3 ovarian): 108 nM
GI50 (ACHN renal): 60.3 nM
TGI (ACHN renal): 1730 nM
GI50 (NCI-H226 lung): 202 nM
TGI (NCI-H226 lung): 6490 nM
GI50 (CCRF-CEM leukemia): 29 nM
TGI (CCRF-CEM leukemia): > 100000 nM
GI50 (SK-OV-3 ovarian): 106 nM
TGI (SK-OV-3 ovarian): 15200 nM
GI50 (KM12 colon): 35.5 nM
TGI (KM12 colon): 570 nM
GI50 (NCI/ADR-RES ovarian): 23.4 nM
TGI (NCI/ADR-RES ovarian): 14400 nM
GI50 (HCC-2998 colon): 126 nM
TGI (HCC-2998 colon): 654 nM
GI50 (SF-268 CNS): 86 nM
TGI (SF-268 CNS): 1850 nM
